Like-named read-outs stand apart in the source and are kept apart here.
Experiments:
[1] = Single dose oral pharmacokinetic study in mice; type: in vivo; settings: for Cmax / Tmax / AUC(0-t): mouse, plasma
Procedure: The test item was administered through oral route to animals (rat/mice) at 30 mg/kg dose in a suitable vehicle at 10 ml/kg dose volume. Blood samples (˜50 uL at each time point) were collected from retro-orbital plexus using K3 EDTA as anticoagulant in eppendorf tubes at defined time intervals under light ether anesthesia. The samples were centrifuged at 3500×g to separate plasma and stored at −80° C. until analysis.
Sample analysis: Test samples were analyzed using LC-MS-MS after developing fit-for-purpose method for each of test compound.

[2] = Cyto-toxicity assay (MTT) in MT2 cells without virus; type: cell-based; settings: human
Procedure: For cyto-toxicity assay the same amount of MT2 cells as in antiviral assay without virus was added to the 96 well plates. The cyto-toxicity was measured using MTT reagent in parallel with p24 estimation. The percent viability is calculated in comparison with vehicle control.

HIV-1 strain 92HT599 = experiment: Antiviral activity: p24 estimation in MT2 cells infected with HIV-1 strain 92HT599; type: cell-based; settings: for inhibition at 0.1 µM: read-out: Antiviral activity % inhibition 100 nM; for inhibition at 1 µM: read-out: Antiviral activity % inhibition 1000 nM
Procedure: MT2 cells were infected with HIV-1 strain 92HT599 (10 TCID 50/30000 cells). The infected cells were plated at the concentration of […] cells per well in 96 well plate. Test compound was added to the micro plate in defined format with the final concentration of DMSO (vehicle) is not more than 1%. Incubation was carried out in CO2 incubator for ˜96 hours for viral infection. At the end of incubation period an aliquot from each well was taken for p24 estimation. The quantitation of p24 is an index for antiviral activity of the compound. Percent inhibition was calculated with reference to control values (vehicle controls).
p-24 estimation was carried out using Advance biosciences kit as per the procedure detailed by supplier.

[3] = Mice oral PK @30 mg/kg (Table 5)
[4] = Human immunodeficiency virus 1, 100 nM, MT2 cells, HIV-1 92HT599, ~96 hours, p24
[5] = Human immunodeficiency virus 1, 1000 nM, MT2 cells, HIV-1 92HT599, ~96 hours, p24
[6] = Oral PK @ 30 mg/ kg dose in mice (Table 6)
[7] = Human immunodeficiency virus 1, MT2, 96 h

## CCN1CCN(C(=O)[C@]23CC[C@@H](C4(C)CC4)[C@@H]2[C@H]2CC[C@@H]4[C@@]5(C)CC[C@H](OC(=O)CC(C)(C)C(=O)O)C(C)(C)[C@@H]5CC[C@@]4(C)[C@]2(C)CC3)CC1 [Example 12, 4-((1R,3aS,5aR,5bR,7aR,9S,11aR,11bR,13aR,13bR)-3a-(4-ethylpiperazine-1-carbonyl)-5a,5b,8,8,11a-pentamethyl-1-(1-methylcyclopropyl)icosahydro-1H-cyclopenta[a]chrysen-9-yloxy)-2,2-dimethyl-4-oxobutanoicacid]
[1]; [3]
  Cmax: 8160 ng/mL
  Tmax: 4 h
[1]; Mice oral PK @30 mg/kg (Table 5), read-out: AUC 0-t
  AUC(0-t): 201 µg·h/mL
[2]
  viability at 100 nM: 100%
  viability at 1000 nM: 99%
HIV-1 strain 92HT599; [4]
  inhibition at 0.1 µM: 100%
HIV-1 strain 92HT599; [5]
  inhibition at 1 µM: 100%

## COC1CCN(C(=O)[C@]23CC[C@@H](C4(C)CC4)[C@@H]2[C@H]2CC[C@@H]4[C@@]5(C)CC[C@H](OC(=O)[C@H]6C[C@@H](C(=O)O)C6(C)C)C(C)(C)[C@@H]5CC[C@@]4(C)[C@]2(C)CC3)CC1 [Example 29]
[1]; [6]
  Tlast: 48 h
  Cmax: 11700 ng/mL
  Tmax: 16 h
[1]; Oral PK @ 30 mg/ kg dose in mice (Table 6), read-out: AUCt
  AUC(0-t): 428 µg·h/mL
[2]; 100 nM, MT2 cells, MTT, read-out: Cytotoxicity % viability 100 nM
  viability at 100 nM: 81%
[2]; 1000 nM, MT2 cells, MTT, read-out: Cytotoxicity % viability 1000 nM
  viability at 1000 nM: 77%
HIV-1 strain 92HT599; [7]
  inhibition at 0.1 µM: 95%
  inhibition at 1 µM: 99%

## [2H]C([2H])([2H])C(N1CCN(C(=O)[C@H]2C[C@@H](NC(=O)[C@]34CC[C@@H](C(=C)C)[C@@H]3[C@H]3CC[C@@H]5[C@@]6(C)CC[C@H](OC(=O)CC(C)(C)C(=O)O)C(C)(C)[C@@H]6CC[C@@]5(C)[C@]3(C)CC4)C2(C)C)CC1)C([2H])([2H])[2H] [Example 8, 4-((1R,3aS,5aR,5bR,7aR,9S,11aR,11bR,13aR,13bR)-3a-((1R,3S)-3-(4-(1-methylethyl-2,2,2,1′,1′,1′-D6)piperazine-1-carbonyl)-2,2-dimethylcyclobutylcarbamoyl)-5a,5b,8,8,11a-pentamethyl-1-(prop-1-en-2-yl)icosahydro-1H-cyclopenta[a]chrysen-9-yloxy)-2,2-dimethyl-4-oxobutanoic acid]
[2]
  viability at 100 nM: 90%
  viability at 1000 nM: 97%
HIV-1 strain 92HT599; [4]
  inhibition at 0.1 µM: 100%
HIV-1 strain 92HT599; [5]
  inhibition at 1 µM: 100%

## C=C(C)[C@@H]1CC[C@]2(C(=O)N[C@@H]3C[C@H](c4nnc(CC(C)C)o4)C3(C)C)CC[C@]3(C)[C@H](CC[C@@H]4[C@@]5(C)CC[C@H](OC(=O)CC(C)(C)C(=O)O)C(C)(C)[C@@H]5CC[C@]43C)[C@@H]12 [Example 16, 4-((1R,3aS,5aR,5bR,7aR,9S,11aR,11bR,13aR,13bR)-3a-((1R,3S)-3-(5-isobutyl-1,3,4-oxadiazol-2-yl)-2,2-dimethylcyclobutylcarbamoyl)-5a,5b,8,8,11a-pentamethyl-1-(prop-1-en-2-yl)icosahydro-1H-cyclopenta[a]chrysen-9-yloxy)-2,2-dimethyl-4-oxobutanoic acid]
[2]
  viability at 100 nM: 81%
  viability at 1000 nM: 79%
HIV-1 strain 92HT599; [4]
  inhibition at 0.1 µM: 100%
HIV-1 strain 92HT599; [5]
  inhibition at 1 µM: 100%

## CC(CO)(CO)C(=O)N1CCN(C(=O)[C@]23CC[C@@H](C4(C)CC4)[C@@H]2[C@H]2CC[C@@H]4[C@@]5(C)CC[C@H](OC(=O)[C@H]6C[C@@H](C(=O)O)C6(C)C)C(C)(C)[C@@H]5CC[C@@]4(C)[C@]2(C)CC3)CC1 [Example 36]
[2]
  viability at 100 nM: 77%
  viability at 1000 nM: 90%
HIV-1 strain 92HT599; [4]
  inhibition at 0.1 µM: 33%
HIV-1 strain 92HT599; [5]
  inhibition at 1 µM: 99%

## CC(C)(C)OC(=O)N1CCN(C(=O)[C@]23CC[C@@H](C4(C)CC4)[C@@H]2[C@H]2CC[C@@H]4[C@@]5(C)CC[C@H](OC(=O)CC(C)(C)C(=O)O)C(C)(C)[C@@H]5CC[C@@]4(C)[C@]2(C)CC3)CC1 [Example 37]
[2]
  viability at 100 nM: 73%
  viability at 1000 nM: 72%
HIV-1 strain 92HT599; [4]
  inhibition at 0.1 µM: 30%
HIV-1 strain 92HT599; [5]
  inhibition at 1 µM: 99%

## CC(C)(CC(=O)O[C@H]1CC[C@]2(C)[C@H]3CC[C@@H]4[C@H]5[C@H](C6(C)CC6)CC[C@]5(C(=O)N5CCCCC5)CC[C@@]4(C)[C@]3(C)CC[C@H]2C1(C)C)C(=O)O [Compound 3, 2,2-dimethyl-4-oxo-4-((1R,3aS,5aR,5bR,7aR,9S,11aR,11bR,13aR,13bR)-5a,5b,8,8,11a-pentamethyl-1-(1-methylcyclopropyl)-3a-(piperidine-1-carbonyl)icosahydro-1H-cyclopenta[a]chrysen-9-yloxy)butanoic acid]
[2]
  viability at 100 nM: 100%
  viability at 1000 nM: 99%
HIV-1 strain 92HT599; [4]
  inhibition at 0.1 µM: 97%
HIV-1 strain 92HT599; [5]
  inhibition at 1 µM: 97%

## C=C(C)[C@@H]1CC[C@]2(C(=O)N3CCN(CC)CC3)CC[C@]3(C)[C@H](CC[C@@H]4[C@@]5(C)CC[C@H](OC(=O)[C@H]6[C@@H](CC(=O)O)C6(C)C)C(C)(C)[C@@H]5CC[C@]43C)[C@@H]12 [Example 19, 2-((1R,3S)-3-(((1R,3aS,5aR,5bR,7aR,9S,11aR,11bR,13aR,13bR)-3a-(4-ethylpiperazine-1-carbonyl)-5a,5b,8,8,11a-pentamethyl-1-(prop-1-en-2-yl)icosahydro-1H-cyclopenta[a]chrysen-9-yloxy)carbonyl)-2,2-dimethylcyclopropyl)aceticacid]
[2]
  viability at 100 nM: 100%
  viability at 1000 nM: 100%
HIV-1 strain 92HT599; [4]
  inhibition at 0.1 µM: 91%
HIV-1 strain 92HT599; [5]
  inhibition at 1 µM: 95%

## COCCOCCOC1CCN(C(=O)[C@]23CC[C@@H](C4(C)CC4)[C@@H]2[C@H]2CC[C@@H]4[C@@]5(C)CC[C@H](OC(=O)[C@H]6C[C@@H](C(=O)O)C6(C)C)C(C)(C)[C@@H]5CC[C@@]4(C)[C@]2(C)CC3)CC1 [Example 44, (1R,3S)-3-((((1R,3aS,5aR,5bR,7aR,9S,11aR,11bR,13aR,13bR)-3a-(4-(2-(2-methoxyethoxyl)ethoxy)piperidine-1-carbonyl)-5a,5b,8,8,11a-pentamethyl-1-(1-methylcyclopropyl)icosahydro-1H-cyclopenta[a]chrysen-9-yl)oxy)carbonyl)-2,2-dimethylcyclobutane-1-carboxylic acid]
[2]
  viability at 100 nM: 93%
  viability at 1000 nM: 86%
HIV-1 strain 92HT599; [4]
  inhibition at 0.1 µM: 97%
HIV-1 strain 92HT599; [5]
  inhibition at 1 µM: 100%

## CC(C)(C)OC(=O)N1CCN(C(=O)[C@]23CC[C@@H](C4(C)CC4)[C@@H]2[C@H]2CC[C@@H]4[C@@]5(C)CC[C@H](OC(=O)[C@H]6C[C@@H](C(=O)O)C6(C)C)C(C)(C)[C@@H]5CC[C@@]4(C)[C@]2(C)CC3)CC1 [Example 38]
[2]
  viability at 100 nM: 85%
  viability at 1000 nM: 83%
HIV-1 strain 92HT599; [4]
  inhibition at 0.1 µM: 68%
HIV-1 strain 92HT599; [5]
  inhibition at 1 µM: 99%

## CC1([C@@H]2CC[C@]3(C(=O)N4CCC(OCCN5CCOCC5)CC4)CC[C@]4(C)[C@H](CC[C@@H]5[C@@]6(C)CC[C@H](OC(=O)[C@H]7C[C@@H](C(=O)O)C7(C)C)C(C)(C)[C@@H]6CC[C@]54C)[C@@H]23)CC1 [Example 48, (1R,3S)-2,2-dimethyl-3-((((1R,3aS,5aR,5bR,7aR,9S,11aR,11bR,13aR,13bR)-5a,5b,8,8,11a-pentamethyl-1-(1-methylcyclopropyl)-3a-(4-(2-morpholinoethoxyl)piperidine-1-carbonyl)icosahydro-1H-cyclopenta[a]chrysen-9-yl)oxy)carbonyl)cyclobutane-1-carboxylic acid]
[2]
  viability at 100 nM: 100%
  viability at 1000 nM: 100%
HIV-1 strain 92HT599; [4]
  inhibition at 0.1 µM: 97%
HIV-1 strain 92HT599; [5]
  inhibition at 1 µM: 99%

## C=C(C)[C@@H]1CC[C@]2(c3nnc(-c4cccnc4)o3)CC[C@]3(C)[C@H](CC[C@@H]4[C@@]5(C)CC[C@H](OC(=O)[C@H]6[C@@H](CC(=O)O)C6(C)C)C(C)(C)[C@@H]5CC[C@]43C)[C@@H]12 [Example 6, 2-((1R,3S)-2,2-dimethyl-3-(((1R,3aS,5aR,5bR,7aR,9S,11aR,11bR,13aR,13bR)-5a,5b,8,8,11a-pentamethyl-1-(prop-1-en-2-yl)-3a-(5-(pyridin-3-yl)-1,3,4-oxadiazol-2-yl)icosahydro-1H-cyclopenta[a]chrysen-9-yloxy)carbonyl)cyclopropyl)aceticacid]
[2]
  viability at 100 nM: 94%
  viability at 1000 nM: 87%
HIV-1 strain 92HT599; [4]
  inhibition at 0.1 µM: 85%
HIV-1 strain 92HT599; [5]
  inhibition at 1 µM: 92%
